Test results as given in patent US10028992B2, “Methods of treating muscular dystrophy” (BOARD OF REGENTS OF THE NEVADA SYSTEM OF HIGHER EDUCATION …, priority 2012, dated 2018).

System: α7 integrin promoter
Assay: muscle cell-based assay: α7βgal+/− myoblasts/myotubes, LacZ reporter, β-galactosidase cleavage of FDG
Set-up: species or system mouse
Conditions: Myotubes; for Results in a α7+/− β-galactosidase assay, Myotubes, 0.5 uM: compound at 0.5 uM; for Results in a α7+/− β-galactosidase assay, Myotubes, 1 uM: compound at 1 uM; for Results in a α7+/− β-galactosidase assay, Myotubes, 5 uM: compound at 5 uM; for Results in a α7+/− β-galactosidase assay, Myotubes, 10 uM: compound at 10 uM; for Results in a α7+/− β-galactosidase assay, Myotubes, 20 uM: compound at 20 uM; for Results in a α7+/− β-galactosidase assay, Myotubes, 40 uM: compound at 40 uM
How it was run: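 Primary α7βgal+/− mouse myoblasts (LacZ knocked into α7 integrin exon 1, promoter retained), differentiated; promoter activity read as β-galactosidase conversion of non-fluorescent FDG to fluorescein. Hits followed by dose-response, western analysis and myostatin counterscreen.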

| Structure (SMILES) | Results in a α7+/− β-galactosidase assay, Myotubes, 0.5 uM | Results in a α7+/− β-galactosidase assay, Myotubes, 1 uM | Results in a α7+/− β-galactosidase assay, Myotubes, 5 uM | Results in a α7+/− β-galactosidase assay, Myotubes, 10 uM | Results in a α7+/− β-galactosidase assay, Myotubes, 20 uM | Results in a α7+/− β-galactosidase assay, Myotubes, 40 uM |
| --- | --- | --- | --- | --- | --- | --- |
| CC(C)Oc1ccc(C(=O)/C=C2\C(=O)Nc3ccccc32)cc1 [drawing 323] | 0.1381 | 0.1721 | −0.09555 | −0.3062 | −0.7604 | −0.9215 |
| COc1ccc(NC(=O)C2(N(C(=O)Cn3nnnc3N)c3ccc(OC)cc3)CCCCC2)cc1 [drawing 324] | 0.05381 | 0.1378 | 0.2107 | −0.07457 | −0.3633 | −0.2285 |
| COc1ccc(CCNC(=O)Cn2nnc(C(=O)Nc3ccc(Br)cc3)c2N)cc1OC [drawing 325] | 0.151 | −0.08157 | −0.07294 | −0.05869 | −0.4709 | −0.3389 |
| CC1(C)Cc2c(cnn2-c2cccc(F)c2)C(NC(=O)CCc2cnccn2)C1 (stereo not drawn) [drawing 326] | 0.2586 | 0.1834 | −0.03061 | 0.09511 | −0.2257 | −0.2443 |
| O=C1Nc2ccccc2/C1=C/c1cccnc1 [drawing 327] | −0.03985 | 0.1859 | 0.1467 | 0.08556 | −0.2464 | −0.3705 |
| CNC(=O)CSc1nnc(-c2ccc3c(c2)OCO3)n1C [drawing 328] | 0.08818 | −0.1177 | 0.04868 | 0.07527 | −0.1599 | −0.2763 |
| Cc1ccccc1NC(=O)NCCCN1CCN(C)CC1 [drawing 329] | 0.0927 | 0.04605 | −0.02688 | −0.00108 | 0.01494 | −0.02803 |
| CC1(C)Cc2c(c(N3CCOCC3)nc3sc(C(=O)Nc4ccccc4)c(N)c23)CO1 [drawing 330] | 0.2661 | 0.1201 | −0.3453 | −0.3697 | 0.0827 | −0.164 |
| COc1ccc(N2CCN(C(=O)c3cc(C)on3)CC2)cc1 [drawing 331] | 0.1218 | 0.07329 | 0 .416848 | 0.01619 | −0.09449 | −0.06707 |
| CCOn1c(=O)c(-c2ccccc2)[n+]([O-])c2ccccc21 [drawing 332] | 0.2995 | 0.2794 | 0.2514 | 0.005171 | −0.0871 | −0.1572 |
| O=S(=O)(N/C(=N/C1CCCCC1)c1ccccc1F)c1ccccc1 [drawing 334] | 0.1113 | 0.07899 | 0.00127 | 0.03577 | −0.0234 | −0.0349 |
| CCCCNc1nnc(Cc2ccc(Cl)cc2)c(O)n1 [drawing 335] | 0.2647 | 0.1668 | −0.1354 | −0.08652 | −0.07223 | −0.1 |
| CC(C)CN(C(=O)c1cccc(Cl)c1)c1c(N)n(Cc2ccccc2)c(=O)[nH]c1=O [drawing 336] | 0.198 | 0.2672 | −0.02107 | 0.07176 | −0.1352 | −0.2545 |
| Cc1nc(O)nc(O)c1S(=O)(=O)Nc1ccc(F)cc1Cl [drawing 337] | 0.2345 | 0.05045 | 0.06886 | 0.09509 | −0.05815 | −0.1517 |
| Cc1nnc(-c2ccc(N3CCOCC3)c([N+](=O)[O-])c2)o1 [drawing 338] | 0.0728 | 0.1596 | −0.09085 | −0.1238 | 0.04847 | −0.1846 |
| Cc1cc(C)cc(OCC(=O)N/N=C/c2ccccn2)c1 [drawing 339] | 0.02382 | 0.1393 | 0.05474 | −0.09985 | 0.0109 | 0.02169 |
| O=C1Nc2ccccc2/C1=C/c1c[nH]c(-c2ccccc2)n1 [drawing 340] | 0.05652 | 0.1643 | 0.09489 | −0.07868 | −0.03697 | −0.06801 |
| O=C(c1ccccc1)N1CCN(S(=O)(=O)c2cccs2)CC1 [drawing 341] | 0.0882 | 0.04972 | 0.07204 | −0.06595 | −0.01414 | −0.06305 |
